Earlier results on one compound are cited in patent US8343544B2, “Oral sustained-release tablet” (Kyorin Pharmaceutical Co., Ltd., priority 2003, dated 2013).

For this data set the following is noted: conventional preparation.

As for `Cc1nccn1CCC(C(N)=O)(c1ccccc1)c1ccccc1` [KRP-197, 4-(2-methyl-1-imidazolyl)-2,2-diphenylbutylamide], the “absorption after an oral administration” value is given as “rapidly absorbed”. For the same compound, for the setting “oral”, the half-life entry is given as “relatively short”.
